Assay results reported in patent US8927771B2, “Pharmaceutically acceptable cocrystals of N-[2-(7-methoxyl-1-naphtyl)ethyl]acetamide and methods of their preparation” (Zentiva k.s., priority 2011, dated 2015).

What was measured:
[1] = BCS classification system; cited from earlier work
[2] = suspensions in organic solvents (alcohols, ketones, esters, alkanes, aromatic hydrocarbons), 30° C., one week, Raman spectroscopy
Description: Samples of the agomelatine citric acid cocrystal were maturated as suspensions in a library of organic solvents including alcohols, ketones, esters, alkanes and aromatic hydrocarbons at a temperature of 30° C. for one week.

[3] = 90° C. in a glass capillary for 7 hours, X-ray powder diffraction
Description: A sample of the agomelatine citric acid cocrystal was heated to 90° C. in a glass capillary for 7 hours.

[4] = DVS, range of 20-80% RH
Text: A sample of the agomelatine citric acid cocrystal was subjected to DVS analysis ([…] Vapor Sorption). The sample was placed on a microbalance in a controlled humidity chamber and subjected to two cycles of increasing humidity (red and green lines) and two cycles of decreasing humidity (blue and purple lines) as shown in FIG. 4.

[5] = slurried in water, Raman spectra
Description: A sample of the agomelatine citric acid cocrystal was slurried in water and the solid analysed by Raman spectroscopy at 20 minute intervals.

| Structure (SMILES) | BCS solubility class [1] | stability of the crystalline phase in suspension [2] | crystalline phase after heating [3] | hygroscopicity [4] | change in mass ([4]; two cycles of increasing and two of decreasing humidity) | state of the solid in water slurry after 20 minutes ([5]; after 20 minutes) | state of the solid in water slurry after 40 minutes ([5]; after 40 minutes) |
| --- | --- | --- | --- | --- | --- | --- | --- |
| COc1ccc2cccc(CCNC(C)=O)c2c1 [N-[2-(7-Methoxy-1-naphthyl)ethyl]acetamide] | high solubility drug |  |  |  |  |  |  |
| COc1ccc2cccc(CCNC(C)=O)c2c1.O=C(O)CC(O)(CC(=O)O)C(=O)O [agomelatine citric acid cocrystal, N-[2-(7-methoxy-1-naphthyl)ethyl]acetamide Citric Acid Cocrystal] |  | generally stable | pure crystalline phase consistent with the agomelatine citric acid cocrystal | not particularly hygroscopic | less than 0.2% | near to complete dissolution of the citric acid | no further changes in the spectrum were observed |
